Experimental data from patent US20220143003A1, “COMPOSITIONS AND METHODS TO TREAT NON-ALCOHOLIC FATTY LIVER DISEASES (NAFLD)” (Coherus Biosciences, Inc., priority 2018, published 2022).

System: DIO-NASH mice
Test: Plasma urea at termination
Type: in vivo, male C57BL/6JRj mice
Conditions: termination; group mean; CHS-131 High dose (alone or combined)
Procedure: For plasma biochemistry, tail blood was drawn directly through the capillary of a Microvette/Vacuette of the right dimension and anticoagulant and mixed by inversion 5 times. Blood was placed at 4° C. until centrifugation at 3000×g for 10 minutes at 4° C. The plasma supernatants were transferred to new tubes and immediately frozen on dry ice and stored at −80° C. until analysis.
Mouse insulin was measured in single determinations using the MSD platform (Meso Scale Diagnostics).
Plasma urea at termination (mmol/L). Values expressed as mean of n=12-14+SEM.

CCCCCCCCCCCCCCCC(=O)N[C@@H](CCC(=O)NCCCC[C@H](NC(=O)[C@H](C)NC(=O)[C@H](C)NC(=O)[C@H](CCC(N)=O)NC(=O)CNC(=O)[C@H](CCC(=O)O)NC(=O)[C@H](CC(C)C)NC(=O)[C@H](Cc1ccc(O)cc1)NC(=O)[C@H](CO)NC(=O)[C@H](CO)NC(=O)[C@@H](NC(=O)[C@H](CC(=O)O)NC(=O)[C@H](CO)NC(=O)[C@@H](NC(=O)[C@H](Cc1ccccc1)NC(=O)[C@@H](NC(=O)CNC(=O)[C@H](CCC(=O)O)NC(=O)[C@H](C)NC(=O)[C@@H](N)Cc1cnc[nH]1)[C@@H](C)O)[C@@H](C)O)C(C)C)C(=O)N[C@@H](CCC(=O)O)C(=O)N[C@@H](Cc1ccccc1)C(=O)N[C@H](C(=O)N[C@@H](C)C(=O)N[C@@H](Cc1c[nH]c2ccccc12)C(=O)N[C@@H](CC(C)C)C(=O)N[C@H](C(=O)N[C@@H](CCCNC(=N)N)C(=O)NCC(=O)N[C@@H](CCCNC(=N)N)C(=O)NCC(=O)O)C(C)C)[C@@H](C)CC)C(=O)O [Liraglutide, reference compound]
Plasma urea at termination: 7.86 mmol/L
